24 molecules from BindingDB's records for doi:10.1016/j.bmcl.2019.01.031 (Merck, 2019) can be followed below.

A word on the EC50: it is the concentration giving half of the maximal effect.

Experiment [1] can be described thus: Inhibition of NS5A in HCV genotype 1a assessed as decrease in viral replication.
Experiment [2] is described as follows: Inhibition of NS5A Y93H mutant in HCV genotype 1a assessed as decrease in viral replication.
Experiment [3] is described as follows: Inhibition of NS5A in HCV genotype 2b assessed as decrease in viral replication.
Experiment [4] can be described thus: Inhibition of NS5A in HCV genotype 4a assessed as decrease in viral replication.
The nature of experiment [5]: Inhibition of NS5A in HCV genotype 1b assessed as decrease in viral replication.
Experiment [6] is described as follows: Inhibition of NS5A in HCV genotype 3a assessed as decrease in viral replication.
Experiment [7] can be described thus: Inhibition of NS5A in HCV genotype 2a assessed as decrease in viral replication.
Experiment [8] in a line: Inhibition of NS5A L31V mutant in HCV genotype 1a assessed as decrease in viral replication.

Molecules are shown by their SMILES.

Regarding `COC(=O)N[C@H](C(=O)N1CCC[C@H]1c1ncc(-c2ccc3c(ccc4c(=O)c5cc(-c6cnc([C@@H]7CCCN7C(=O)[C@@H](NC(=O)OC)C(C)C)[nH]6)ccc5oc43)c2)[nH]1)C(C)C`, the EC50 stood at 0.02 nM in experiment [1] and 66 nM in experiment [2].
On to `COC(=O)N[C@H](C(=O)N1CCC[C@H]1c1ncc(-c2ccc3c(c2)Oc2ccc4cc(-c5cnc([C@@H]6CCCN6C(=O)[C@@H](NC(=O)OC)C(C)C)[nH]5)ccc4c2C3(C)C)[nH]1)C(C)C`, for which the EC50 in experiment [1] turned out to be 0.0029 nM; in experiment [3], 11 nM; in experiment [2], 18 nM.
As for `CC[C@@H]1c2ccc(-c3cnc([C@@H]4CCCN4C(=O)[C@@H](NC(=O)OC)C4CCOCC4)[nH]3)cc2Oc2ccc3cc(-c4cnc([C@@H]5CCCN5C[C@@H](NC(=O)OC)C5CCOCC5)[nH]4)ccc3c21`, the concentration giving a half-maximal response (EC50) in experiment [4] stood at 0.01 nM; in experiment [5], 0.004 nM; in experiment [6] it was 0.2 nM; in experiment [1], 0.01 nM; in experiment [3] it was 0.3 nM; in experiment [2], 0.8 nM.
`COC(=O)N[C@H](C(=O)N1C[C@H](F)C[C@H]1c1ncc(-c2ccc3c(ccc4oc5cc(-c6cnc([C@@H]7C[C@@H](F)CN7C(=O)[C@@H](NC(=O)OC)C(C)C)[nH]6)ccc5c(=O)c43)c2)[nH]1)C(C)C`: the 50% effective concentration (EC50) is 0.0045 nM in experiment [5]; more than 1 nM in experiment [6]; 0.029 nM in experiment [1]; 90 nM in experiment [3]; 1.2 nM in experiment [2].
For `COC(=O)N[C@H](C(=O)N1CCC[C@H]1c1ncc(-c2ccc3c(c2)Oc2ccc4cc(-c5cnc([C@@H]6CCCN6C(=O)[C@@H](NC(=O)OC)C(C)C)[nH]5)ccc4c2[C@@H]3C)[nH]1)C(C)C`, the half-maximal effective concentration (EC50) in experiment [5] came to 0.0036 nM; in experiment [6], 1.4 nM; in experiment [1], 0.0046 nM; in experiment [3] it was 37 nM; in experiment [2] it was 11 nM.
Consider `COC(=O)N[C@H](C(=O)N1CCC[C@H]1c1ncc(-c2ccc3c(c2)Oc2ccc4cc(-c5cnc([C@@H]6CCCN6C[C@@H](NC(=O)OC)C6CCOCC6)[nH]5)ccc4c2C3(C)C)[nH]1)C1CCOCC1`, for which the half-maximal effective concentration (EC50) was 0.006 nM in experiment [4]; 0.004 nM in experiment [5]; 0.08 nM in experiment [6]; 0.002 nM in experiment [1]; 0.3 nM in experiment [3]; 0.7 nM in experiment [2].
For the molecule `CCC1c2ccc(-c3cnc([C@@H]4CCCN4C(=O)[C@@H](NC(=O)OC)C(C)C)[nH]3)cc2Oc2ccc(-c3cnc([C@@H]4CCCN4C(=O)[C@@H](NC(=O)OC)C(C)C)[nH]3)cc21` (some centres not stated), the EC50 came to 0.004 nM in experiment [5]; 0.07 nM in experiment [6]; 0.005 nM in experiment [7]; 0.02 nM in experiment [1]; 24 nM in experiment [2].
Turning to `CCN(CC)[C@@H](C(=O)N1C[C@H](F)C[C@H]1c1ncc(-c2ccc3c(ccc4oc5cc(-c6cnc([C@@H]7C[C@@H](F)CN7C(=O)[C@@H](c7ccccc7)N(CC)CC)[nH]6)ccc5c(=O)c43)c2)[nH]1)c1ccccc1`, the half-maximal effective concentration (EC50) is 0.026 nM in experiment [6], 0.31 nM in experiment [1], 797 nM in experiment [3] and 506 nM in experiment [2].
Consider `CC[C@H]1c2ccc(-c3cnc([C@@H]4CCCN4C(=O)[C@@H](NC(=O)OC)C(C)C)[nH]3)cc2Oc2ccc3cc(-c4cnc([C@@H]5CCCN5C(=O)[C@@H](NC(=O)OC)C(C)C)[nH]4)ccc3c21`, for which the EC50 came out at 1.1 nM in experiment [6], 0.005 nM in experiment [1], 0.78 nM in experiment [3] and 12 nM in experiment [2].
`COC(=O)N[C@H](C(=O)N1CCC[C@H]1c1ncc(-c2ccc3c(c2)Oc2ccc4cc(-c5cnc([C@@H]6CCCN6C[C@@H](NC(=O)OC)C6CCOCC6)[nH]5)ccc4c2[C@@H]3C)[nH]1)C1CCOCC1`: the 50% effective concentration (EC50) was found to be 0.004 nM in experiment [4]; 0.006 nM in experiment [5]; 0.06 nM in experiment [6]; 0.005 nM in experiment [1]; 0.5 nM in experiment [3]; 0.03 nM in experiment [8]. In addition, in experiment [2], the EC50 is 0.5 nM.
On to `COC(=O)N[C@H](C(=O)N1CCC[C@H]1c1ncc(-c2ccc3c(=O)c4cc(-c5cnc([C@@H]6CCCN6C(=O)[C@@H](NC(=O)OC)C(C)C)[nH]5)ccc4oc3c2)[nH]1)C(C)C`, for which the concentration for a half-maximal effect (EC50) in experiment [5] amounted to 0.002 nM; in experiment [7], 0.1 nM; in experiment [1] it was 0.01 nM; in experiment [2], 1730 nM.
As for `COC(=O)N[C@H](C(=O)N1CCC[C@H]1c1ncc(-c2ccc3c(ccc4oc5ccc(-c6cnc([C@@H]7CCCN7C(=O)[C@@H](NC(=O)OC)C(C)C)[nH]6)cc5c(=O)c43)c2)[nH]1)C(C)C`, the EC50 is 0.1 nM in experiment [5]; more than 1 nM in experiment [6]; 0.2 nM in experiment [1]; more than 100 nM in experiment [3]; more than 100 nM in experiment [2].
For `COC(=O)N[C@H](C(=O)N1C[C@H](F)C[C@H]1c1ncc(-c2ccc3c(ccc4oc5cc(-c6cnc([C@@H]7C[C@@H](F)CN7C(=O)[C@@H](NC(=O)OC)C7CCOCC7)[nH]6)ccc5c(=O)c43)c2)[nH]1)C1CCOCC1`, the 50% effective concentration (EC50) is 5.8 nM in experiment [6], 0.084 nM in experiment [1], 3.5 nM in experiment [3] and 0.18 nM in experiment [2].
Consider `COC(=O)N[C@H](C(=O)N1CCC[C@H]1c1ncc(-c2ccc3c(c2)C(C)c2ccc4cc(-c5cnc([C@@H]6CCCN6C(=O)[C@@H](NC(=O)OC)C(C)C)[nH]5)ccc4c2O3)[nH]1)C(C)C` (some centres not stated), for which the half-maximal effective concentration (EC50) in experiment [1] came out at 0.0057 nM; in experiment [2], 49 nM.
For the molecule `CCC1(CC)c2ccc(-c3cnc([C@@H]4CCCN4C(=O)[C@@H](NC(=O)OC)C(C)C)[nH]3)cc2Oc2ccc3cc(-c4cnc([C@@H]5CCCN5C(=O)[C@@H](NC(=O)OC)C(C)C)[nH]4)ccc3c21`, the concentration for a half-maximal effect (EC50) in experiment [6] was determined as 0.58 nM; in experiment [1] it was 0.002 nM; in experiment [3], 3.3 nM; in experiment [2], 4.1 nM.
In the case of `COC(=O)N[C@H](C(=O)N1CCC[C@H]1c1ncc(-c2ccc3c(c2)Oc2ccc4cc(-c5cnc([C@@H]6CCCN6C[C@@H](NC(=O)OC)C6CCOCC6)[nH]5)ccc4c2[C@H]3C)[nH]1)C1CCOCC1`, the concentration for a half-maximal effect (EC50) is 0.009 nM in experiment [4]; 0.004 nM in experiment [5]; 0.04 nM in experiment [6]; 0.004 nM in experiment [1]; 0.02 nM in experiment [3]; 0.03 nM in experiment [8]. The half-maximal effective concentration (EC50) in experiment [2] stood at 0.4 nM.
On to `COC(=O)N[C@H](C(=O)N1CCC[C@H]1c1ncc(-c2ccc3c(ccc4oc5cc(-c6cnc([C@@H]7CCCN7C(=O)[C@@H](NC(=O)OC)C(C)C)[nH]6)ccc5c(=O)c43)c2)[nH]1)C(C)C`, for which the EC50 is 0.003 nM in experiment [5]; more than 1 nM in experiment [6]; 0.003 nM in experiment [1]; 14 nM in experiment [3]; 18 nM in experiment [2].
With `COC(=O)N[C@H](C(=O)N1CCC[C@H]1c1ncc(-c2ccc3c(F)c4oc5ccc(-c6cnc([C@@H]7CCCN7C(=O)[C@@H](NC(=O)OC)C(C)C)[nH]6)cc5c(=O)c4cc3c2)[nH]1)C(C)C`, the half-maximal effective concentration (EC50) in experiment [5] is more than 1 nM; in experiment [6], more than 1 nM; in experiment [1] it was more than 1 nM; in experiment [3] it was more than 100 nM; in experiment [2], more than 100 nM.
Regarding `CCC1(CC)c2ccc(-c3cnc([C@@H]4CCCN4C(=O)[C@@H](NC(=O)OC)C(C)C)[nH]3)cc2Oc2cc3ccc(-c4cnc([C@@H]5CCCN5C(=O)[C@@H](NC(=O)OC)C(C)C)[nH]4)cc3cc21`, the EC50 in experiment [6] was 1.1 nM; in experiment [1], 0.002 nM; in experiment [3] it was 4.5 nM; in experiment [2], 3.3 nM.
Take `CC[C@H]1c2ccc(-c3cnc([C@@H]4CCCN4C(=O)[C@@H](NC(=O)OC)C4CCOCC4)[nH]3)cc2Oc2ccc3cc(-c4cnc([C@@H]5CCCN5C[C@@H](NC(=O)OC)C5CCOCC5)[nH]4)ccc3c21`: the EC50 in experiment [6] worked out at 0.03 nM; in experiment [1] it was 0.004 nM; in experiment [2], 0.2 nM.
On to `COC(=O)N[C@H](C(=O)N1CCC[C@H]1c1ncc(-c2ccc3c(ccc4oc5cc(-c6cnc([C@@H]7CCCN7C(=O)[C@@H](NC(=O)OC)C7CCOCC7)[nH]6)ccc5c(=O)c43)c2)[nH]1)C1CCOCC1`, for which the half-maximal effective concentration (EC50) in experiment [6] amounted to 0.72 nM; in experiment [1] it was 0.041 nM; in experiment [3], 0.48 nM; in experiment [2] it was 2 nM.
For `COC(=O)N[C@H](C(=O)N1CCC[C@H]1c1ncc(-c2ccc3c(c2)Oc2ccc4cc(-c5cnc([C@@H]6CCCN6C(=O)[C@@H](NC(=O)OC)C(C)C)[nH]5)ccc4c2[C@H]3C)[nH]1)C(C)C`, the EC50 in experiment [5] is 0.0016 nM; in experiment [6], 0.72 nM; in experiment [1] it was 0.0022 nM; in experiment [3] it was 1.9 nM; in experiment [2], 7.2 nM.
Take `CC[C@@H]1c2ccc(-c3cnc([C@@H]4CCCN4C(=O)[C@@H](NC(=O)OC)C(C)C)[nH]3)cc2Oc2ccc3cc(-c4cnc([C@@H]5CCCN5C(=O)[C@@H](NC(=O)OC)C(C)C)[nH]4)ccc3c21`: the EC50 in experiment [6] was found to be 1.7 nM; in experiment [1] it was 0.0027 nM; in experiment [3], 13 nM; in experiment [2], 15 nM.
`COC(=O)N[C@H](C(=O)N1CCC[C@H]1c1nc(-c2ccc3c(c2)O[C@@H](c2ccccc2)n2c-3cc3cc(-c4c[nH]c([C@@H]5CCCN5C(=O)[C@@H](NC(=O)OC)C(C)C)n4)ccc32)c[nH]1)C(C)C` [Elbasvir]: the concentration for a half-maximal effect (EC50) in experiment [5] amounted to 0.003 nM; in experiment [6], 0.02 nM; in experiment [7], 0.003 nM; in experiment [1], 0.004 nM.
